Experimental data as given in patent US9532983B2, “Benzofuran compounds, compositions, kits and/or methods thereof” (Savannah State University, priority 2013, dated 2017).
Entries after “also recorded” stand apart in the source; their conditions may differ. Where two headings read alike, the source gives them in different places.

Tests used:
[1] = test system: mitochondria from steroidogenic MA-10 cells; assay: Metabolic conversion of [3H]pregnenolone to progesterone in isolated MA-10 mitochondria; format: biochemical, mouse
Protocol: (§1) Mouse Leydig cell line (MA-10) was grown in Waymouth media containing 15% horse serum, 5% fetal bovine serum, and 1× gentamycin, which was replaced with 250 mg/ml G418 (geneticin) for VDAC1 knockdown (ΔVDAC1) MA10 cells. Cells were maintained at 37° C. in a humidified incubator under 5% CO2. To isolate mitochondria, cells were removed from tissue culture plates by gentle scrapping in phosphate-buffered saline at room temperature, incubated in hypotonic buffer (10 mM HEPES, pH 7.4) for 30 to 40 min, and mitochondria were isolated following readily available procedures. The mitochondrial preparation was verified by Western blotting with the cytochrome P450 SCC enzyme (Corgen, Tapai, Taiwan) and calnexin antibodies (Santa Cruz Biotechnology, Inc., Santa Cruz, Calif.).
To measure the conversion of [^3H]pregnenolone to [^3H]progesterone, isolated mitochondria from steroidogenic MA-10 cells (300 μg) were incubated in phosphate buffer along with the substrate, and the reaction was initiated by the NAD. For metabolic conversion of [^14C]cholesterol to pregnenolone, the reaction was initiated by the addition of NADPH, and for complete conversion we used 5-fold excess of cold carrier to reach the saturation point. The steroids were extracted with ether/acetone (9:1 v/v), and equal amounts of a cold pregnenolone-progesterone (50:50; Sigma, St. Louis, Mo.) mixture in CH2C12 was added as a carrier. The extracts were concentrated under a stream of nitrogen or air and then separated by thin-layer chromatography (TLC) (Whatman, Clifton, N.J.) using a chloroform/ethyl acetate (3:1) mobile phase.
Given the potential role of σ1 in steroidogenesis (FIG. 4A), we performed conversion assays in the presence of three sigma receptor ligands. […] The possibility exists that the σ1 receptor transiently interacts with the OMM-associated porins. As such, the increased levels of σ1 receptor with KSCM-11 may enhance the transport of substrate cholesterol into the mitochondria, thereby increasing progesterone synthesis.

[2] = target: T1, Alpha2C (Homo sapiens, UniProt P18825); assay: Primary binding assay at non-sigma receptors: Alpha2C; conditions: 10 μM (final) assay concentration
T1 construct: expressed in transfected cells
T1 sequence (P18825 1-462): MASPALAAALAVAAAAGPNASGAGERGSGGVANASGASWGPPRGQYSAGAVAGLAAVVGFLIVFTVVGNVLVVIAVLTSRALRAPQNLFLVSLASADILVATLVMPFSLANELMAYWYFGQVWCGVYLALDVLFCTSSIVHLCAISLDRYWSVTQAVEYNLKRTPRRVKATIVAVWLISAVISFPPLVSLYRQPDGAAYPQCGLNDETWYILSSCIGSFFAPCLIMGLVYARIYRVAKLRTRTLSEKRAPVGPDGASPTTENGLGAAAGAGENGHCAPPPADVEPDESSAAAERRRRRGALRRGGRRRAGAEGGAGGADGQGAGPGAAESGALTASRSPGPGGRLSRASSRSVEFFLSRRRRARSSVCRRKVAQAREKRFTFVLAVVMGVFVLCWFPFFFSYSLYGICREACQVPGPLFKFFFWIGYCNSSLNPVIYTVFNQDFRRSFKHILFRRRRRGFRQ
Protocol: (§2) Initial primary binding screening assays were performed using a 50 μM (initial)−10 μM (final) assay concentration of reference and test compounds.

[3] = target: T2, 5-HT2B (Homo sapiens, UniProt P41595); assay: Secondary binding assay, Ki determination: 5-HT2B
T2 construct: expressed in transfected cells

[4] = test system: 3βHSD2; assay: Western blot, expression of 3βHSD2 in MA-10 cells; format: cell-based, mouse; conditions: any concentration
Protocol: as §1
(§3) Protein (12.5 μg) was separated by 15% SDS-polyacrylamide gel electrophoresis and transferred to a polyvinylidinedifluoride membrane (Millipore Corporation, Billerica, Mass.). The membrane was blocked with 3% nonfat dry milk for 45 min, probed overnight with the primary antibodies, and then incubated with […] goat anti-rabbit or anti mouse IgG (Thermo Fisher Scientific, Waltham, Mass.). Signals were developed with chemiluminescent reagent (Thermo Fisher Scientific). For loading control of all Western blots, the membrane was stained with β-actin antibody, which was previously independently stained with StAR or 3-β-hydroxysteroid dehydrogenase (3βHSD2) or VDAC1 and VDAC2 antiserum. The band intensity was determined by using Image Quant 5.2 (Phosphorimager; GE Healthcare, Chalfont St. Giles, Buckinghamshire, UK). Densitometric calculation may reflect the ratio of σ1 or VDAC2 and β-actin following an established procedure that is readily available.
(§4) In addition, VDAC2 antibody (FIG. 3E) was used to probe and was compared with β-actin expression (FIG. 3F) of the same membrane.

[5] = target: T3, 5-HT2A (Homo sapiens, UniProt P28223); assay: Secondary binding assay, Ki determination: 5-HT2A
T3 construct: expressed in transfected cells

[6] = test system: σ1 receptor; assay: Western blot, expression of σ1 receptor in MA-10 cells; format: cell-based, mouse; conditions: 24 h, increasing concentrations
Protocol: as §1, with “Cells” for “Mouse Leydig cell line (MA-10) was grown in Waymouth media containing 15% horse serum, 5% fetal bovine serum, and 1× gentamycin, which was replaced with 250 mg/ml G418 (geneticin) for VDAC1 knockdown (ΔVDAC1) MA10 cells. Cells”
as §3, with “The” for “Protein (12.5 μg) was separated by 15% SDS-polyacrylamide gel electrophoresis and transferred to a polyvinylidinedifluoride membrane (Millipore Corporation, Billerica, Mass.). The”
as §4

[7] = target: T2, 5-HT2B; assay: Primary binding assay at non-sigma receptors: 5-HT2B; conditions: read-out: % Inhibition 5-HT2B
Protocol: as §2

[8] = test system: VDAC2; assay: Western blot / densitometry, expression of VDAC2 in MA-10 cells; format: cell-based, mouse; conditions: increasing concentrations
Protocol: as §1, §3, §4

[9] = higher concentrations than 10 nM

T2 sequence (P41595 whole entry, species assumed): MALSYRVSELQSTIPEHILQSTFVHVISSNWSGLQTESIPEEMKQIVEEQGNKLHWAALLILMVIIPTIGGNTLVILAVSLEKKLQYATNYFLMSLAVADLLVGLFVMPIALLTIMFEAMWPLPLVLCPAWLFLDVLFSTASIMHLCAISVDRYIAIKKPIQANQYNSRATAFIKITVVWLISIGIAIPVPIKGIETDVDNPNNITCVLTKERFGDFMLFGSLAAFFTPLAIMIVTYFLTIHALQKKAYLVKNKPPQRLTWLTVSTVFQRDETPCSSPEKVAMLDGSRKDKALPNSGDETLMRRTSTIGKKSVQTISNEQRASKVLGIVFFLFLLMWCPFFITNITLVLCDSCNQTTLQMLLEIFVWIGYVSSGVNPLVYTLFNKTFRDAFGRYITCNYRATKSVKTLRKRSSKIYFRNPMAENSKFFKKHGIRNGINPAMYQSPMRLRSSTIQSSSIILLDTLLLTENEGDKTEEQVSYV
T3 sequence (P28223 whole entry): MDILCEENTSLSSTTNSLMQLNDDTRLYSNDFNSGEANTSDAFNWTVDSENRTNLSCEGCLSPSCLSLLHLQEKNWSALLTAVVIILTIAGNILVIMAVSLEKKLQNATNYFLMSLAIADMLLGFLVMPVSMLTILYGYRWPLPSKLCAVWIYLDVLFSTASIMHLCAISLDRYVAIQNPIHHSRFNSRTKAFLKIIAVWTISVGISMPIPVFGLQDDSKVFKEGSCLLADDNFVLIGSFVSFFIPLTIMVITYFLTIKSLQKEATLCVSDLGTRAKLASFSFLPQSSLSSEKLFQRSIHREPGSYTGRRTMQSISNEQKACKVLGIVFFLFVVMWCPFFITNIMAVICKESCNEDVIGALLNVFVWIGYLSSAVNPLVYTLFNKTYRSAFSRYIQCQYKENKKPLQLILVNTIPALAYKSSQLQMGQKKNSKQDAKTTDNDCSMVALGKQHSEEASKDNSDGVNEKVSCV

SMILES | effect on progesterone conversion (in words) ([1]; 10 nM) | effect on progesterone conversion (in words) [1, 9] | inhibition at 10 µM [2] [%] | Ki [3] [nM] | level of 3βHSD2 (in words) [4] | Ki [5] [nM] | expression of the σ1 receptor (in words) [6] | inhibition at 10 µM [7] [%] | expression of VDAC2 (in words) [8] | inhibition at 10 µM ([7]; primary binding assay, 10 μM (final) assay concentration) [%]
COc1ccc2c(C)c(C(=O)N(CCCN3CCCCC3)c3ccccc3)oc2c1 [KSCM-11, 6-Methoxy-3-methyl-N-phenyl-N-(3-(piperidin-1-yl)propyl)benzofuran-2-carboxamide] | no effect | conversion decreased significantly | 49 | 204 | no change | 2770 | increased expression; also recorded: moderately increased | 93.9 | decreased with increasing concentrations | –
COc1cc2oc(C(=O)N(CCCN3CCCCC3)c3ccccc3)c(C)c2cc1OC [KSCM-1, 5,6-Dimethoxy-3-methyl-N-phenyl-N-(3-(piperidin-1-yl)propyl)benzofuran-2-carboxamide] | – | reduced conversion to the basal level | 78.9 | – | no change | 2560 | increased expression; also recorded: increased with increasing concentrations | 43.8 | increased with increasing concentrations | –
Cc1c(C(=O)N(CCCN2CCCCC2)c2ccccc2)oc2ccccc12 [KSCM-5, 3-Methyl-N-phenyl-N-(3-(piperidin-1-yl)propyl)benzofuran-2-carboxamide] | no effect | conversion decreased significantly | 61.9 | 936 | no change | – | increased only minimally; also recorded: remained unchanged | – | decreased with increasing concentrations | 69.2
